Data as given in patent US7015231B2, “Chemical compounds” (SmithKline Beecham Corporation, priority 2001, dated 2006).

What follows are compounds tested against T1, TrkA (Homo sapiens, UniProt P04629) (assay: TrkA substrate phosphorylation assay (tyrosine kinase activity, synthetic peptide substrate, 33P-ATP, p81 filter plates)). Details: GST-fusion of the TrkA intracellular domain, 30 uM ATP, 50 uM Src peptide, RT for 120′.
T1 construct: The enzyme is a GST-fusion of the intracellular domain expressed in SF9 cells; GST; purchased Regeneron; host or cells: SF9 cells
Type: biochemical
Experimental: Substrate phosphorylation assays were carried out as follows:
The enzyme is a GST-fusion of the intracellular domain expressed in SF9 cells. The enzyme is expressed and purified by Regeneron. The enzyme is preincubated with cold ATP and Mg to allow autophosphorylation prior to running the screen. […] The assay is performed in 96 well microtitre plates, and reaction products are detected following filtration through millipore p81 phosphocellulose plates.

T1 sequence (P04629 440-796 limits assumed, species assumed): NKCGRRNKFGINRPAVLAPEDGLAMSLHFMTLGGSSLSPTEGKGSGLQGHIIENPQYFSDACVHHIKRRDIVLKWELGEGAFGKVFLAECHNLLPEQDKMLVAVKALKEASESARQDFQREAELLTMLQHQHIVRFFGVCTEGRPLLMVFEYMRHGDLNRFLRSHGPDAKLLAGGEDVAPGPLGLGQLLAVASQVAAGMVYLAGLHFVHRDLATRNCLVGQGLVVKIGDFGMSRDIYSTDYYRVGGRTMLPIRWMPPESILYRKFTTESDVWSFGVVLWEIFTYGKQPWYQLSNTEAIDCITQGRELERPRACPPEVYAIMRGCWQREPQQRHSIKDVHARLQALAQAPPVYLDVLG

| IC50 [nM] | Compound |
| --- | --- |
| < 10 | Cn1cc(C=C2C(=O)Nc3ncccc32)c2ccccc21 [Example 4] |
| 10 to 250 | O=C1Nc2cccnc2C1=Cc1c[nH]c2ccccc12 [Example 3] |
| < 10 | O=C1Nc2ncccc2C1=Cc1c[nH]c2ccccc12 [Example 5] |
| < 10 | COc1ccccc1-c1cc(C=C2C(=O)Nc3ncc(Br)cc32)cc(Br)c1O [Example 1, 3-(3-Bromo-4-hydroxy-5-(2′methoxyphenyl)-benzylidene)-5-bromo-1,3-dihydro-pyrrolo[2,3-b]pyridin-2-one] |
